{"source": "patent US20170190671A1", "about": "“BIS(ARYL)CATECHOL DERIVATIVES AS HERBICIDES” (E I DU PONT DE NEMOURS AND COMPANY, priority 2014, published 2017)", "assay_type_in_all_cases": "in vivo", "key": {"[1]": {"system": "Italian ryegrass (Lolium multiflorum)", "assay": "Test F preemergence", "details": "21 days, scale 0 to 100", "excerpt": "(§1) Seeds of plant species selected from bermudagrass (Cynodon dactylon), Surinam grass (Brachiaria decumbens), large (Lg) crabgrass (Digitaria sanguinalis), crabgrass, naked (naked crabgrass, Digitaria nuda), foxtail, green (green foxtail, Setaria viridis), johnsongrass (Sorghum halepense), kochia (Kochia scoparia), morningglory (pitted morningglory, Ipomoea lacunosa), nutsedge, purple (purple nutsedge, Cyperus rotundus), ragweed (common ragweed, Ambrosia elatior), mustard, black (black mustard, Brassica nigra), guineagrass (Panicum maximum), dallisgrass (Paspalum dilatatum), barnyardgrass (Echinochloa crus-galli), sandbur (southern sandbur, Cenchrus echinatus), sowthistle (common sowthistle, Sonchus oleraceous), Italian ryegrass (Lolium multiflorum), signalgrass (broadleaf signalgrass, Brachiaria platyphylla), dayflower (Virginia (VA) dayflower, Commelina virginica), bluegrass (annual bluegrass, Poa annua), quackgrass (Elytrigia repens), mallow (common mallow, Malva sylvestris), buckwheat, wild (wild buckwheat, Polygonum convolvulus), leafy spurge (Euphorbia esula), chickweed (common chickweed, Stellaria media), wild poinsettia (Euphorbia heterophylla), and pigweed (Amaranthus retroflexus) were planted into a blend of loam soil and sand and treated preemergence with test a chemical formulated in a non-phytotoxic solvent mixture which included a surfactant.\n(§2) Treated plants and controls were maintained in a greenhouse for 21 days, after which time all species were compared to controls and visually evaluated. Plant response ratings, summarized in Table F, are based on a scale of 0 to 100 where 0 is no effect and 100 is complete control. A dash (-) response means no test result."}, "[2]": {"system": "Surinam grass (Brachiaria decumbens)", "assay": "Test F preemergence", "details": "21 days, scale 0 to 100", "excerpt": "as §1, §2"}, "[3]": {"system": "bluegrass (annual bluegrass, Poa annua)", "assay": "Test F preemergence", "details": "21 days, scale 0 to 100", "excerpt": "as §1, §2"}, "[4]": {"system": "buckwheat, wild (wild buckwheat, Polygonum convolvulus)", "assay": "Test F preemergence", "details": "21 days, scale 0 to 100", "excerpt": "as §1, §2"}, "[5]": {"system": "guineagrass (Panicum maximum)", "assay": "Test F preemergence", "details": "21 days, scale 0 to 100", "excerpt": "as §1, §2"}, "[6]": {"system": "johnsongrass (Sorghum halepense)", "assay": "Test F preemergence", "details": "21 days, scale 0 to 100", "excerpt": "as §1, §2"}, "kochia (Kochia scoparia)": {"system": "kochia (Kochia scoparia)", "assay": "Test F preemergence", "details": "21 days, scale 0 to 100", "excerpt": "as §1, §2"}, "[7]": {"system": "nutsedge, purple (purple nutsedge, Cyperus rotundus)", "assay": "Test F preemergence", "details": "21 days, scale 0 to 100", "excerpt": "as §1, §2"}, "[8]": {"system": "sandbur (southern sandbur, Cenchrus echinatus)", "assay": "Test F preemergence", "details": "21 days, scale 0 to 100", "excerpt": "as §1, §2"}, "[9]": {"system": "wild poinsettia (Euphorbia heterophylla)", "assay": "Test F preemergence", "details": "21 days, scale 0 to 100", "excerpt": "as §1, §2"}, "[10]": {"system": "cocklebur (common cocklebur, Xanthium strumarium)", "assay": "Test E preemergence", "details": "scale 0 to 100", "in_short": "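Test chemicals, formulated in a non-phytotoxic solvent with surfactant, are applied to silt loam soil after sowing or sprayed over young plants (1–4 leaves) in potting medium. Plants are then kept in a greenhouse for 14 to 21 days and scored 0–100 for control.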"}, "[11]": {"system": "barnyardgrass (Echinochloa crus-galli)", "assay": "Test C flooded paddy", "details": "Flood, scale 0 to 100", "excerpt": "(§3) At time of treatment, test pots were flooded to 3 cm above the soil surface, treated by application of test compounds directly to the paddy water, and then maintained at that water depth for the duration of the test. Treated plants and controls were maintained in a greenhouse for 13 to 15 days, after which time all species were compared to controls and visually evaluated. […] A dash (-) response means no test result."}, "[12]": {"system": "ducksalad (Heteranthera limosa)", "assay": "Test C flooded paddy", "details": "Flood, scale 0 to 100", "excerpt": "as §3"}, "rice (Oryza sativa)": {"system": "rice (Oryza sativa)", "assay": "Test C flooded paddy", "details": "Flood, scale 0 to 100", "excerpt": "as §3"}, "[13]": {"system": "sedge, umbrella (small-flower umbrella sedge, Cyperus difformis)", "assay": "Test C flooded paddy", "details": "Flood, scale 0 to 100", "excerpt": "as §3"}}, "data": [{"smiles": "N#Cc1cccc(Oc2ncc(Cl)cn2)c1Oc1ncc(Cl)cn1", "note": "[Compound 3, 2,3-bis[(5-chloro-2-pyrimidinyl)oxy]benzonitrile]", "values": [{"measurement": "Plant response rating, Ryegrass, Italian", "setting": "[1]; 62 g ai/ha", "value": 95}, {"measurement": "Plant response rating, Ryegrass, Italian", "setting": "[1]; 125 g ai/ha", "value": 100}, {"measurement": "Plant response rating, Ryegrass, Italian", "setting": "[1]; 250 g ai/ha", "value": 100}, {"measurement": "Plant response rating, Surinam Grass", "setting": "[2]; 62 g ai/ha", "value": 75}, {"measurement": "Plant response rating, Surinam Grass", "setting": "[2]; 125 g ai/ha", "value": 100}, {"measurement": "Plant response rating, Surinam Grass", "setting": "[2]; 250 g ai/ha", "value": 100}, {"measurement": "Plant response rating, Bluegrass", "setting": "[3]; 62 g ai/ha", "value": 80}, {"measurement": "Plant response rating, Bluegrass", "setting": "[3]; 125 g ai/ha", "value": 100}, {"measurement": "Plant response rating, Bluegrass", "setting": "[3]; 250 g ai/ha", "value": 100}, {"measurement": "Plant response rating, Buckwheat, Wild", "setting": "[4]; 62 g ai/ha", "value": 100}, {"measurement": "Plant response rating, Buckwheat, Wild", "setting": "[4]; 125 g ai/ha", "value": 100}, {"measurement": "Plant response rating, Buckwheat, Wild", "setting": "[4]; 250 g ai/ha", "value": 100}, {"measurement": "Plant response rating, Guineagrass", "setting": "[5]; 62 g ai/ha", "value": 100}, {"measurement": "Plant response rating, Guineagrass", "setting": "[5]; 125 g ai/ha", "value": 100}, {"measurement": "Plant response rating, Guineagrass", "setting": "[5]; 250 g ai/ha", "value": 100}, {"measurement": "Plant response rating, Johnsongrass", "setting": "[6]; 62 g ai/ha", "value": 75}, {"measurement": "Plant response rating, Johnsongrass", "setting": "[6]; 125 g ai/ha", "value": 100}, {"measurement": "Plant response rating, Johnsongrass", "setting": "[6]; 250 g ai/ha", "value": 100}, {"measurement": "Plant response rating, Kochia", "setting": "kochia (Kochia scoparia); 62 g ai/ha", "value": 100}, {"measurement": "Plant response rating, Kochia", "setting": "kochia (Kochia scoparia); 125 g ai/ha", "value": 100}, {"measurement": "Plant response rating, Kochia", "setting": "kochia (Kochia scoparia); 250 g ai/ha", "value": 100}, {"measurement": "Plant response rating, Nutsedge, Purple", "setting": "[7]; 62 g ai/ha", "value": 40}, {"measurement": "Plant response rating, Nutsedge, Purple", "setting": "[7]; 125 g ai/ha", "value": 60}, {"measurement": "Plant response rating, Nutsedge, Purple", "setting": "[7]; 250 g ai/ha", "value": 85}, {"measurement": "Plant response rating, Sandbur", "setting": "[8]; 62 g ai/ha", "value": 35}, {"measurement": "Plant response rating, Sandbur", "setting": "[8]; 125 g ai/ha", "value": 100}, {"measurement": "Plant response rating, Sandbur", "setting": "[8]; 250 g ai/ha", "value": 100}, {"measurement": "Plant response rating, Poinsettia, Wild", "setting": "[9]; 62 g ai/ha", "value": 95}, {"measurement": "Plant response rating, Poinsettia, Wild", "setting": "[9]; 125 g ai/ha", "value": 95}, {"measurement": "Plant response rating, Poinsettia, Wild", "setting": "[9]; 250 g ai/ha", "value": 100}]}, {"smiles": "Fc1cccc(Oc2ncc(Cl)cn2)c1Oc1ncc(Cl)cn1", "note": "[Compound 21, 2,2′-[[3-fluoro-1,2-phenylene]bis(oxy)]bis[5-chloropyrimidine]]", "values": [{"measurement": "Plant response rating, Cocklebur", "setting": "[10]; 31 g ai/ha", "value": 35}, {"measurement": "Plant response rating, Cocklebur", "setting": "[10]; 62 g ai/ha", "value": 40}, {"measurement": "Plant response rating, Cocklebur", "setting": "[10]; 125 g ai/ha", "value": 50}]}, {"smiles": "Clc1cnc(Oc2cccc(Br)c2Oc2ncc(Cl)cn2)nc1", "note": "[Compound 19, 2,2′-[[3-bromo-1,2-phenylene]bis(oxy)]bis[5-chloropyrimidine]]", "values": [{"measurement": "Plant response rating, Cocklebur", "setting": "[10]; 16 g ai/ha", "value": 0}, {"measurement": "Plant response rating, Cocklebur", "setting": "[10]; 62 g ai/ha", "value": 0}, {"measurement": "Plant response rating, Cocklebur", "setting": "[10]; 125 g ai/ha", "value": 0}]}, {"smiles": "N#Cc1cccc(Oc2ncc(Cl)cn2)c1Oc1ncc(Br)cn1", "note": "[Compound 4, 2-[(5-bromo-2-pyrimidinyl)oxy]-3-[(5-chloro-2-pyrimidinyl)oxy]benzonitrile]", "values": [{"measurement": "Plant response rating, Barnyardgrass", "setting": "[11]; 31 g ai/ha", "value": 0}, {"measurement": "Plant response rating, Barnyardgrass", "setting": "[11]; 62 g ai/ha", "value": 0}, {"measurement": "Plant response rating, Barnyardgrass", "setting": "[11]; 125 g ai/ha", "value": 20}, {"measurement": "Plant response rating, Barnyardgrass", "setting": "[11]; 250 g ai/ha", "value": 40}, {"measurement": "Plant response rating, Ducksalad", "setting": "[12]; 31 g ai/ha", "value": 0}, {"measurement": "Plant response rating, Ducksalad", "setting": "[12]; 62 g ai/ha", "value": 40}, {"measurement": "Plant response rating, Ducksalad", "setting": "[12]; 125 g ai/ha", "value": 100}, {"measurement": "Plant response rating, Ducksalad", "setting": "[12]; 250 g ai/ha", "value": 100}, {"measurement": "Plant response rating, Rice", "setting": "rice (Oryza sativa); 31 g ai/ha", "value": 0}, {"measurement": "Plant response rating, Rice", "setting": "rice (Oryza sativa); 62 g ai/ha", "value": 0}, {"measurement": "Plant response rating, Rice", "setting": "rice (Oryza sativa); 125 g ai/ha", "value": 0}, {"measurement": "Plant response rating, Rice", "setting": "rice (Oryza sativa); 250 g ai/ha", "value": 30}, {"measurement": "Plant response rating, Sedge, Umbrella", "setting": "[13]; 31 g ai/ha", "value": 0}, {"measurement": "Plant response rating, Sedge, Umbrella", "setting": "[13]; 62 g ai/ha", "value": 0}, {"measurement": "Plant response rating, Sedge, Umbrella", "setting": "[13]; 125 g ai/ha", "value": 75}, {"measurement": "Plant response rating, Sedge, Umbrella", "setting": "[13]; 250 g ai/ha", "value": 100}]}, {"smiles": "Fc1cccc(Oc2ncc(Cl)cn2)c1Oc1ccc(Cl)nc1", "note": "[Compound 20]", "values": [{"measurement": "Plant response rating, Barnyardgrass", "setting": "[11]; 31 g ai/ha", "value": 0}, {"measurement": "Plant response rating, Barnyardgrass", "setting": "[11]; 62 g ai/ha", "value": 0}, {"measurement": "Plant response rating, Barnyardgrass", "setting": "[11]; 125 g ai/ha", "value": 0}, {"measurement": "Plant response rating, Barnyardgrass", "setting": "[11]; 250 g ai/ha", "value": 0}, {"measurement": "Plant response rating, Ducksalad", "setting": "[12]; 31 g ai/ha", "value": 0}, {"measurement": "Plant response rating, Ducksalad", "setting": "[12]; 62 g ai/ha", "value": 0}, {"measurement": "Plant response rating, Ducksalad", "setting": "[12]; 125 g ai/ha", "value": 45}, {"measurement": "Plant response rating, Ducksalad", "setting": "[12]; 250 g ai/ha", "value": 70}, {"measurement": "Plant response rating, Rice", "setting": "rice (Oryza sativa); 31 g ai/ha", "value": 0}, {"measurement": "Plant response rating, Rice", "setting": "rice (Oryza sativa); 62 g ai/ha", "value": 0}, {"measurement": "Plant response rating, Rice", "setting": "rice (Oryza sativa); 125 g ai/ha", "value": 0}, {"measurement": "Plant response rating, Rice", "setting": "rice (Oryza sativa); 250 g ai/ha", "value": 0}, {"measurement": "Plant response rating, Sedge, Umbrella", "setting": "[13]; 31 g ai/ha", "value": 0}, {"measurement": "Plant response rating, Sedge, Umbrella", "setting": "[13]; 62 g ai/ha", "value": 0}, {"measurement": "Plant response rating, Sedge, Umbrella", "setting": "[13]; 125 g ai/ha", "value": 65}, {"measurement": "Plant response rating, Sedge, Umbrella", "setting": "[13]; 250 g ai/ha", "value": 80}]}]}
